One test concerns K562. The test can be described thus: Cytotoxicity against human K562 cells. The format is functional. To be noted: read-out: LC50 (the source's name).
The next test has as its system A549. The test can be described thus: Cytotoxicity against human A549 cells. It counts as functional. As to conditions: read-out: LC50 (the source's name).
Test [1] deals with Sodium/potassium-transporting ATPase. The test can be described thus: Inhibition of Sodium/potassium-transporting ATPase. It counts as protein-complex assay, Homo sapiens.

Molecules are shown by their SMILES. Where only a bound is given, the exact number is not on record here.

As for `CC(=O)N[C@H]1[C@H](O[C@@H]2CO[C@@H](O[C@H]3CC[C@]4(C)C5=C(CC[C@H]4C3(C)C)[C@@H]3CC[C@H]([C@H](C)CC(=O)C=C(C)C)[C@@]3(C)CC5)[C@H](O[C@@H]3O[C@H](CO[C@@H]4O[C@H](CO)[C@@H](O)[C@H](O)[C@H]4O[C@@H]4O[C@H](CO)[C@@H](O)[C@H](O)[C@H]4O)[C@@H](O)[C@H](O)[C@H]3NC(C)=O)[C@H]2O)O[C@H](CO)[C@H](O)[C@@H]1O` [SARASINOSIDE A1], the CC50 came to 7.4 µM with K562 and 7.6 µM in the test on A549. The IC50 (usually the concentration that gives 50% inhibition) in test [1] is 46.5 µM.
Consider `COc1cccc2c1C(=O)c1c(O)c3c(c(O)c1C2=O)C[C@@](O)(C(=O)CO)C[C@@H]3O[C@H]1C[C@H](N)[C@H](O)[C@H](C)O1` [DOXORUBICIN], for which the CC50 in the test with K562 amounted to 4.7 µM; with A549, 1.7 µM.
Consider `CC(=O)N[C@H]1[C@H](O[C@@H]2CO[C@@H](O[C@H]3CC[C@@]4(C)[C@@H](CCC5=C6[C@H](O)C[C@H]([C@H](C)CC(=O)C=C(C)C)[C@@]6(C)CC[C@@]54O)C3(C)C)[C@H](O[C@@H]3O[C@H](CO[C@@H]4O[C@H](CO)[C@@H](O)[C@H](O)[C@H]4O[C@@H]4O[C@H](CO)[C@@H](O)[C@H](O)[C@H]4O)[C@@H](O)[C@H](O)[C@H]3NC(C)=O)[C@H]2O)O[C@H](CO)[C@H](O)[C@@H]1O` [SARASINOSIDE H1], for which the values for the CC50 with K562 and with A549 were 37.4 µM and 14.2 µM, respectively. The molecule also had an IC50 in test [1] of more than 75.7 µM.
For `CC(=O)N[C@H]1[C@H](O[C@@H]2CO[C@@H](O[C@H]3CC[C@]4(C)C5=CC[C@]6(C)[C@@H]([C@H](C)CC(=O)C=C(C)C)CC[C@H]6C5=CC[C@H]4C3(C)C)[C@H](O[C@@H]3O[C@H](CO[C@@H]4O[C@H](CO)[C@@H](O)[C@H](O)[C@H]4O[C@@H]4O[C@H](CO)[C@@H](O)[C@H](O)[C@H]4O)[C@@H](O)[C@H](O)[C@H]3NC(C)=O)[C@H]2O)O[C@H](CO)[C@H](O)[C@@H]1O` [SARASINOSIDE A2], the CC50 came to 8.5 µM in the test on K562 and 7.6 µM with A549. Further, the IC50 in test [1] was more than 77.7 µM.
Taken in the same sequence, the figures for `CC(=O)N[C@H]1[C@H](O[C@@H]2CO[C@@H](O[C@H]3CC[C@]4(C)C5=CC[C@]6(C)[C@@H]([C@H](C)CC(=O)C=C(C)C)CC[C@H]6[C@@]5(O)CC[C@@]4(O)C3(C)C)[C@H](O[C@@H]3O[C@H](CO[C@@H]4O[C@H](CO)[C@@H](O)[C@H](O)[C@H]4O[C@@H]4O[C@H](CO)[C@@H](O)[C@H](O)[C@H]4O)[C@@H](O)[C@H](O)[C@H]3NC(C)=O)[C@H]2O)O[C@H](CO)[C@H](O)[C@@H]1O` [SARASINOSIDE O] were 61.5 µM, 54.7 µM and more than 75.7 µM.
For the molecule `CC(=O)N[C@H]1[C@H](O[C@@H]2CO[C@@H](O[C@H]3CC[C@]4(C)C5=C(CC[C@H]4C3(C)C)[C@@H]3CC[C@H]([C@H](C)CC(=O)CC(C)(C)O)[C@@]3(C)CC5)[C@H](O[C@@H]3O[C@H](CO[C@@H]4O[C@H](CO)[C@@H](O)[C@H](O)[C@H]4O[C@@H]4O[C@H](CO)[C@@H](O)[C@H](O)[C@H]4O)[C@@H](O)[C@H](O)[C@H]3NC(C)=O)[C@H]2O)O[C@H](CO)[C@H](O)[C@@H]1O` [SARASINOSIDE J], the CC50 in the test on K562 was determined as 20.8 µM; in the test on A549, 10.3 µM. The IC50 in test [1] is more than 76.5 µM.
`CO[C@@H]1C[C@H]([C@H](C)CC(=O)C=C(C)C)[C@@]2(C)CC[C@@]3(O)C(=C12)CC[C@H]1C(C)(C)[C@@H](O[C@@H]2OC[C@@H](O[C@@H]4O[C@H](CO)[C@H](O)[C@H](O)[C@H]4NC(C)=O)[C@H](O)[C@H]2O[C@@H]2O[C@H](CO[C@@H]4O[C@H](CO)[C@@H](O)[C@H](O)[C@H]4O[C@@H]4O[C@H](CO)[C@@H](O)[C@H](O)[C@H]4O)[C@@H](O)[C@H](O)[C@H]2NC(C)=O)CC[C@@]13C` [SARASINOSIDE H2]: the CC50 with K562 was 42.7 µM; with A549, more than 100 µM. The molecule further returned an IC50 in test [1] of more than 74.9 µM.
For `CC(=O)N[C@H]1[C@H](O[C@@H]2CO[C@@H](O[C@H]3CC[C@]4(C)C5=C(CC[C@H]4C3(C)C)[C@@H]3CC[C@H]([C@H](C)CC(=O)C=C(C)C)[C@@]3(C)CC5)[C@H](O[C@@H]3O[C@H](CO)[C@@H](O)[C@H](O)[C@H]3NC(C)=O)[C@H]2O)O[C@H](CO)[C@H](O)[C@@H]1O` (relative stereo) the same measures were 20.2 µM, 10.7 µM and 56.1 µM.
For `CC(=O)N[C@H]1[C@H](O[C@@H]2CO[C@@H](O[C@H]3CC[C@]4(C)C5=CC[C@@]6(C)C(=C(CC[C@H]4C3(C)C)O5)CC[C@@H]6[C@H](C)CC(=O)C=C(C)C)[C@H](O[C@@H]3O[C@H](CO[C@@H]4O[C@H](CO)[C@@H](O)[C@H](O)[C@H]4O[C@@H]4O[C@H](CO)[C@@H](O)[C@H](O)[C@H]4O)[C@@H](O)[C@H](O)[C@H]3NC(C)=O)[C@H]2O)O[C@H](CO)[C@H](O)[C@@H]1O` [SARASINOSIDE M] the same measures were 12.1 µM, 7.7 µM and more than 76.7 µM.
Take `CC(=O)N[C@H]1[C@H](O[C@H]2[C@H](O[C@H]3CC[C@]4(C)C5=C(CC[C@H]4C3(C)C)[C@@H]3CC[C@H]([C@H](C)CC(=O)C=C(C)C)[C@@]3(C)CC5)OC[C@@H](O)[C@@H]2O)O[C@H](CO[C@@H]2O[C@H](CO)[C@@H](O)[C@H](O)[C@H]2O[C@@H]2O[C@H](CO)[C@@H](O)[C@H](O)[C@H]2O)[C@@H](O)[C@@H]1O`: the CC50 came out at 18.7 µM in the test on K562 and 9.1 µM in the test with A549. In test [1], this molecule had an IC50 of 54.7 µM.
Taken in the same sequence, the figures for `CC(=O)N[C@H]1[C@H](O[C@@H]2CO[C@@H](O[C@H]3CC[C@@]4(C)[C@@H](CC[C@@]5(O)[C@]4(O)CC=C4[C@@H]([C@H](C)CC(=O)C=C(C)C)CC[C@@]45C)C3(C)C)[C@H](O[C@@H]3O[C@H](CO[C@@H]4O[C@H](CO)[C@@H](O)[C@H](O)[C@H]4O[C@@H]4O[C@H](CO)[C@@H](O)[C@H](O)[C@H]4O)[C@@H](O)[C@H](O)[C@H]3NC(C)=O)[C@H]2O)O[C@H](CO)[C@H](O)[C@@H]1O` [SARASINOSIDE R] were more than 100 µM, 14.7 µM and more than 75.7 µM.
Taken in the same sequence, the figures for `CC(C)=CC(=O)C[C@@H](C)[C@H]1CCC2=C3CC[C@H]4C(C)(C)[C@@H](O)CC[C@]4(C)[C@H]3CC[C@@]21C` were 69.4 µM, 41.6 µM and more than 234 µM.
For `CC(=O)N[C@H]1[C@H](O[C@@H]2CO[C@@H](O[C@H]3CC[C@@]4(C)[C@@H](CCC5=C6CC[C@H]([C@H](C)CC(=O)C=C(C)C)[C@@]6(C)CC[C@@]4(O)O5)C3(C)C)[C@H](O[C@@H]3O[C@H](CO[C@@H]4O[C@H](CO)[C@@H](O)[C@H](O)[C@H]4O[C@@H]4O[C@H](CO)[C@@H](O)[C@H](O)[C@H]4O)[C@@H](O)[C@H](O)[C@H]3NC(C)=O)[C@H]2O)O[C@H](CO)[C@H](O)[C@@H]1O` [SARASINOSIDE Q] the same measures were 17.9 µM, 14 µM and more than 75.7 µM.
On to `CC(=O)N[C@H]1[C@H](O[C@@H]2CO[C@@H](O[C@H]3CC[C@]4(C)C5=C(CC[C@H]4C3(C)C)C3=CC[C@H]([C@H](C)CC(=O)C=C(C)C)[C@@]3(C)CC5)[C@H](O[C@@H]3O[C@H](CO[C@@H]4O[C@H](CO)[C@@H](O)[C@H](O)[C@H]4O[C@@H]4O[C@H](CO)[C@@H](O)[C@H](O)[C@H]4O)[C@@H](O)[C@H](O)[C@H]3NC(C)=O)[C@H]2O)O[C@H](CO)[C@H](O)[C@@H]1O` [SARASINOSIDE A3], for which the CC50 in the test on K562 is 24.8 µM; with A549, 10.1 µM. Further, the IC50 in test [1] is more than 77.7 µM.
For `CC(=O)N[C@H]1[C@H](O[C@@H]2CO[C@@H](O[C@H]3CC[C@]4(C)C5=CC[C@]6(C)[C@@H]([C@H](C)CC(=O)C=C(C)C)CC[C@H]6[C@]5(O)CC[C@]4(O)C3(C)C)[C@H](O[C@@H]3O[C@H](CO[C@@H]4O[C@H](CO)[C@@H](O)[C@H](O)[C@H]4O[C@@H]4O[C@H](CO)[C@@H](O)[C@H](O)[C@H]4O)[C@@H](O)[C@H](O)[C@H]3NC(C)=O)[C@H]2O)O[C@H](CO)[C@H](O)[C@@H]1O` [SARASINOSIDE P] the same measures were 11.6 µM, 17.9 µM and more than 75.7 µM.

(Values after ChEMBL document CHEMBL2069302, “Nortriterpene glycosides of the sarasinoside class from the sponge Lipastrotethya sp” (J Nat Prod, 2012).)
